What was measured:
[1] = system: imatinib mesylate-resistant chronic myeloid leukemia cells; conditions: by down-regulating bcr-abl, Alessandro et al, 2008; cited from earlier work
[2] = system: refractory renal cell carcinoma; test: Phase I clinical study of CTO, patient with refractory renal cell carcinoma; format: in vivo, human; conditions: 75 mg/m2/day
Protocol: (§1) This invention contemplates treating these cancers and other cancers at any stage from the discovery of the cancer to the advanced stage, starting with the first step of carrying out the genotyping of the primary and secondary tumors. The effectiveness of the CTO treatment is determined by controlled clinical studies. The cancers are evaluated by measuring tumors no more than 14 days before the start of the treatment, and evaluated after 2 cycles of 28 days after day 1 of the administration of the first dose of CTO. The tumor size is measured by the most accurate measurement such as PET-CT, CT scan, MRI scan, x-ray, ultrasound, etc. […]
(§2) “Partial response” means a) for bidimensionally measurable tumors, a decrease of at least 50% in the sum of the products of the largest perpendicular diameters of all measurable tumors as determined by two observations not less than four weeks apart, b) for undimensionally measurable tumors, a decrease by at least 50% in the sum of the largest diameters of all tumors as determined by two observation not less than four weeks apart. […]
After having established the baseline clinical parameters, the patient was given 75 mg/m2/day for a period of 28 days for two cycles and the tumor was measured. […]

[3] = system: refractory NSCLC tumor (EGFR, ELREATS 746-752 V (exon 19)); test: Phase I clinical study of CTO, patient with refractory NSCLC (EGFR exon 19); format: in vivo, human; conditions: EGFR exon 19 mutation, 219 mg/m2/day
Protocol: as §1, with “etc. The criteria for evaluating response are described in the revised Response Evaluation Criteria in Solid Tumors Guidelines, Eisenhauer et al, 1990 and by the Macdonald Criteria for response to high grade gliomas, Macdonald et al, 1990.” for “etc.”
as §2

[4] = system: refractory NSCLC tumor (PI3KCA, E545K); test: Phase I clinical study of CTO, patient with refractory NSCLC (PI3KCA, E545K); format: in vivo, human; conditions: 219 mg/m2/day
Protocol: as §1, §2
In the present invention, a patient with NSCLC who had received prior treatment with paclitaxel, carboplatin erlotinib and docetaxel. […] After having established the baseline clinical parameters, the patient was given 219 mg/m2/day for a period of 28 days for two cycles and the tumor was measured. […]

[5] = system: refractory head and neck tumor (PI3KCA, E545K); test: Phase I clinical study of CTO, patient with refractory head and neck cancer; format: in vivo, human; conditions: 285 mg/m2/day
Excerpt: “Progressive disease” is defined as an increase of 25% or greater in the product of the largest perpendicular diameters for at least one bidimensionally measurable tumor, or an increase of 25% or greater at least one undimensionally measurable tumor or appearance of a new lesion or clinical deterioration. […]

[6] = system: Akt and Erk1/2 phosphorylation; conditions: exosomes-stimulated HUVEC cell; Corrado et al, 2012; cited from earlier work
[7] = system: refractory metastatic colorectal cancer (BRAF V660E); test: Phase I clinical study of CTO, patient with refractory metastatic colorectal cancer; format: in vivo, human; conditions: 285 mg/m2/day
Protocol: as §1, §2
After having established the baseline clinical parameters, the patient was given 285 mg/m2/day for a period of 28 days for two cycles and the tumor was measured. […]

[8] = FOLFIRI (fluorouracil, leucovorin, irinotecan) regimen; Carrato et al 2013; cited from earlier work
head and neck cancer = conditions: cited from earlier work

SMILES: NC(=O)c1nnn(Cc2cc(Cl)c(C(=O)c3ccc(Cl)cc3)c(Cl)c2)c1N [CAI, Carboxyamidotriazole]
- apoptosis [1]: induces apoptosis

SMILES: NC(=O)c1nnn(Cc2cc(Cl)c(C(=O)c3ccc(Cl)cc3)c(Cl)c2)c1N.O=C(O)c1cc(=O)[nH]c(=O)[nH]1 [CTO, carboxyamidotriazole orotate]
- duration of stable disease and partial response ([2]; 28-day cycles, CTO continued): over twelve
- tumor response measured after two cycles ([2]; prior IL-2, pegylated IFN, sorafenib, sunitnib, erlotinib, torisel, 28 days, two cycles): responded by not progressing
- duration of stable disease and partial response ([3]; 28-day cycles): more than twelve
- tumor response measured after two cycles ([3]; prior carboplatin, paclitaxel, docetaxel, erlotinib, cisplatin, gemcitamide, premetrexed, 28 days, two cycles): responded by not progressing
- duration of stable disease and partial response ([4]; 28-day cycles): more than twelve
- tumor response measured after two cycles ([4]; prior paclitaxel, carboplatin, erlotinib, docetaxel, 28 days, two cycles): responded by not progressing
- duration of stable disease and partial response ([5]; 28-day cycles): more than six
- tumor response measured after two cycles ([5]; PI3KCA E545K, prior cetuximab, cisplatin, taxotere, 28 days, two cycles): responded by not progressing
- Akt and Erk1/2 phosphorylation [6]: inhibits
- duration of stable disease and partial response ([7]; 28-day cycles): six
- tumor response measured after two cycles ([7]; prior leucovorin, fluorouracil, oxaliplatin, bevacizumab, cetuximab, capecitabine, panitumumab, irinotecan, 28 days, two cycles): responded to CTO by not progressing

SMILES: CCN(CC)CCNC(=O)c1c(C)[nH]c(/C=C2\C(=O)Nc3ccc(F)cc32)c1C [Sunitnib]
- superiority over FOLFIRI alone [8]: did not prove superior over FOLFIRI alone

SMILES: C#Cc1cccc(Nc2ncnc3cc(OCCOC)c(OCCOC)cc23)c1 [erlotinib]
- improvement when added to chemotherapy and radiotherapy (head and neck cancer): no improvement

— patent US9089570B2, “Compositions for treating cancers having acquired resitance to prior chemotherapeutic and targeted drugs using carboxyamidotriazole orotate” (TACTICAL THERAPEUTICS INC, priority 2013, dated 2015)
